Data as given in patent US20040228820A1, “Compositions comprising an amidine and an alkane polyol” (The Procter & Gamble Company, priority 2003, published 2004).

Assay: Stabilisation of amidines in aqueous solution by alkane polyols
Excerpt: The compositions of the present invention also comprise an alkane polyol having an N-octanol/water partition coefficient (ClogP) of from +0.2 to +1.55. […] The ClogP values of these materials indicate their hydrophilic/lipophilic balance. Alkane polyols having a ClogP value of between +0.2 and +1.55 are slightly lipophilic, enabling them to interact with the amidines. However, the alkane polyols herein maintain a high enough solubility in water due to the presence of the hydroxy moieties to allow them to maintain the amidine in solution.

Q: With `OCCCCCCCO` [1,7-heptanediol] as the molecule, how does the “Stabilises Amidines?” value read?
A: Yes

Q: For `OCCCCCCCCCO` [1,9-nonanediol], which “Stabilises Amidines?” value is on record?
A: Yes

Q: For `CC(O)CCC(C)O` (centres unmarked) [2,5-hexanediol], which “Stabilises Amidines?” value is on record?
A: No

Q: Which “Stabilises Amidines?” value does the source give for `CCCCC(O)CO` (centres unmarked) [1,2-hexanediol] here?
A: Yes

Q: For `CCCC(O)CO` (centres unmarked) [1,2 Pentanediol], which “Stabilises Amidines?” value is on record?
A: No

Q: With `OCCCCCCCCCCO` [1,10-decanediol] as the molecule, how does the “Stabilises Amidines?” value read?
A: No

Q: For `CCCCCCC(O)CO` (centres unmarked) [1,2-octanediol], which “Stabilises Amidines?” value is on record?
A: Yes

Q: Which “Stabilises Amidines?” value does the source give for `CCCCCC(O)CO` (centres unmarked) [1,2-heptanediol] here?
A: Yes
